Our source for the IC50, Dmax and DC50 values is patent publication US20260028354A1, “TETRAHYDRONAPHTHALENE DERIVATIVES AS ESTROGEN RECEPTOR DEGRADERS” (REGENT OF THE UNIVERSITY OF MICHIGAN, priority 2022, published 2026).

Read-outs that look alike come from different tables or passages of the source. A value given as a limit tells only on which side of the number the result lay.

For one assay, the target named is CRBN/DDB1 (Homo sapiens (Human), UniProt Q96SW2). In kind it is binding. Conditions: His tagged CRBN+DDB1, Cy5-labeled Thalidomide probe, one hour; read-out: CRBN HTRF IC50. Here is the method:
The binding potency was determined using HTRF assay technology (Perkin Elmer). Compounds were serially diluted in DMSO and […] volume was transferred to white 384-well plate.
(In general: TR-FRET usually uses a lanthanide donor and a delayed reading to cut background.)

A further assay has as its target ER in MCF-7 cells (Homo sapiens (Human), UniProt P03372). In words: In-cell Western (ICW) ER degradation assay in MCF-7 cells. Format: cell-based. Conditions: for DC50: MCF-7, ER degradation, read-out: MCF7 DC50.
The next assay concerns the target ER in T47D cells (Homo sapiens (Human), UniProt P03372). Nature of the assay: In-cell Western (ICW) ER degradation assay in T47D cells. Format: cell-based. Conditions: for DC50: ER degradation.
The target of another assay is ERα_LBD (GST) (Homo sapiens (Human), UniProt P03372). In words: IC50 measurements for binding to ERα_LBD (GST), LanthaScreen TR-FRET competitive binding. Conditions: ERα_LBD (GST) 4 nM, Fluormone ES2 Green tracer, 60 min; read-out: ERα HTRF IC50. On the procedure:
In vitro Assay: IC50 Measurements for binding to ERα_LBD (GST) • Final assay conditions: • 1. ERα_LBD (GST) protein: 4 nM • 2. Tb Anti-GST: 2 nM • 3. Fluormone ES2 Green tracer: 3 nM • 4. Incubation time: 60 min • 5. DMSO: 1% • 6. Assay buffer: Adding 1M DTT to Nuclear receptor Buffer K for final 5 mM DTT. • 7. ZPE: 1% DMSO • 8. HPE: 1 μM ARV_471 (positive control) • 9. LanthaScreen® TR-FRET ERα Competitive Binding Assay (ThermoFisher, #A^15887) • 100× Compound preparation
1) Cherry pick 2 μL 10 mM compound stock to column 1 of a 384 intermediate plate. • 2) Add 18 μL DMSO to column 1 to dilute compound to 1 mM. • 3) Transfer 10 μL 1 mM compound to column 1 of a LDV plate. • 2) Add 6 μl DMSO to column 2-10 of the LDV plate. • 3) Compounds undergo 3-fold serial dilution (3 μL+6 μL) in DMSO. • 4) Transfer 120 nL compound solution to assay plate. ZPE: 120 nL 100% DMSO • Procedure:
Complete nuclear receptor buffer K was prepared by adding 1 M DTT to nuclear receptor buffer K for a final concentration of 5 mM DTT. Complete nuclear receptor buffer K must be prepared fresh daily, 2X protein solution was prepared using complete nuclear receptor buffer K containing 8 nM ERα_LBD (GST) and 4 nM Tb Anti-GST. Then, 2X Fluormone ES2 Green tracer (6 nM) was prepared using complete nuclear receptor buffer K. Add 6 μL 2X Fluormone ES2 green tracer into a compound plate (PerkinElmer 6008289) by dragonfly with one-tips-addition. Subsequently, 6 μL 2× protein solution was added into the plate. The 384-well plate was mixed on a plate shaker and incubated at room temperature protected from light for 60 min. The plate was scaled with a cover to minimize evaporation. The plate was read at wavelengths of 520 nm and 495 nm. The TR-FRET ratio was calculated by dividing the emission signal at 520 nm by the emission signal at 495 nm. A binding curve was generated by plotting the emission ratio vs, the log [ligand]. To determine the IC50 value, fit the data using XL-fit for a sigmoidal dose-response.

[1] abbreviates: MCF7, MCF-7, maximal ER degradation, 16 hrs treatment, read-out: MCF7 Dmax.
The mark [2] stands for this setting: maximal ER degradation, 16 hrs treatment, read-out: T47D Dmax.
Setting [3] is: MCF7, read-out: MCF7 Dmax, MCF-7, maximal ER degradation, 16 hrs treatment.
The mark [4] stands for this setting: read-out: T47D Dmax, T47D, maximal ER degradation, 16 hrs treatment.

Sequence of CRBN/DDB1 (Q96SW2 whole entry, species assumed): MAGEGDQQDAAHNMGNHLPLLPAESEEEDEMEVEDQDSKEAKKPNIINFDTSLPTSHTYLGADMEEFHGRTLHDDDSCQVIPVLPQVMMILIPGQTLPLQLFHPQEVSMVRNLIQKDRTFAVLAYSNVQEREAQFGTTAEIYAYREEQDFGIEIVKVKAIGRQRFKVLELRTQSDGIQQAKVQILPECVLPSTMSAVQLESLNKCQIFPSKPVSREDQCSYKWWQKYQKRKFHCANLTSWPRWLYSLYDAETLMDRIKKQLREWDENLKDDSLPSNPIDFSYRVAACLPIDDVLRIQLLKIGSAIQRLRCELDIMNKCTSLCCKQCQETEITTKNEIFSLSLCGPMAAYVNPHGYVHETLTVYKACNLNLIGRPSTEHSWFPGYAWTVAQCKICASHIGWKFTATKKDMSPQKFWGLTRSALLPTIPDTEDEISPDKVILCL
Sequence of CRBN/DDB1 (Q16531 whole entry partner, species assumed): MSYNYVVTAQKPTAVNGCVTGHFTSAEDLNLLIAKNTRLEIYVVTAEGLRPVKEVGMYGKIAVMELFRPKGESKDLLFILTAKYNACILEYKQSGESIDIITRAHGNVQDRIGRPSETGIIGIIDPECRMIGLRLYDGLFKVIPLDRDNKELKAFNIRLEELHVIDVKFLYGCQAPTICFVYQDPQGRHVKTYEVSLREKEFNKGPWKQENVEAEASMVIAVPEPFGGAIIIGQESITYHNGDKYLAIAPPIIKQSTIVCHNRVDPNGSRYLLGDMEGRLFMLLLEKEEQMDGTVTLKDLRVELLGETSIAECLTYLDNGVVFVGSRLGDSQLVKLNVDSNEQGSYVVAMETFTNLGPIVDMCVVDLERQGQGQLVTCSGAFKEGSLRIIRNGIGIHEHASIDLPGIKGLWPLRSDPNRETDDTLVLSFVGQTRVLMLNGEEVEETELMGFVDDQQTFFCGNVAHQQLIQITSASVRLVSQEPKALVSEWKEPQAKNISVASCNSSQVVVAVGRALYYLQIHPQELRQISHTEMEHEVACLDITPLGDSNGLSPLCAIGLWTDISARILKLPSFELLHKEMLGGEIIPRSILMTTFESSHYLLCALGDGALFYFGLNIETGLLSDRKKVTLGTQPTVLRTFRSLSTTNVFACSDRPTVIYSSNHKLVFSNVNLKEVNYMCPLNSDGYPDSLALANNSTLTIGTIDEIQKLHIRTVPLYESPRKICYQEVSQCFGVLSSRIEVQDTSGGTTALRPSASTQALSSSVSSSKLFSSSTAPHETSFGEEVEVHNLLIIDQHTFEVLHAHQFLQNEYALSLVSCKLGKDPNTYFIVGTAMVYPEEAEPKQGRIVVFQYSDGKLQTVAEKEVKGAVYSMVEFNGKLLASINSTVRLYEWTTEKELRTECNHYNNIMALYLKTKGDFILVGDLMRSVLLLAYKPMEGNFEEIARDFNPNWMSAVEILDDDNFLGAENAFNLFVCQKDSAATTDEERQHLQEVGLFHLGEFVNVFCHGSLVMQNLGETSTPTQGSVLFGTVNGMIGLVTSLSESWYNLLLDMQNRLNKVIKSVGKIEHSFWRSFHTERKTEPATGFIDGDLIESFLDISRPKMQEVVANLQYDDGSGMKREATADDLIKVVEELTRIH
Sequence of ERα_LBD (GST) (P03372 311-547): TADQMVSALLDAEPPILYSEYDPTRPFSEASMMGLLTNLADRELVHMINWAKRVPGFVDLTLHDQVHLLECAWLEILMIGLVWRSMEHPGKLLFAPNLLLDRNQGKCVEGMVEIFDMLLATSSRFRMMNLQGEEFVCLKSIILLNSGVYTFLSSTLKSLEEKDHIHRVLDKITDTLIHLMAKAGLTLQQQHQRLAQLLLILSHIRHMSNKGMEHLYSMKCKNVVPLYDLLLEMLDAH
Sequence of ER in MCF-7 cells (P03372 whole entry): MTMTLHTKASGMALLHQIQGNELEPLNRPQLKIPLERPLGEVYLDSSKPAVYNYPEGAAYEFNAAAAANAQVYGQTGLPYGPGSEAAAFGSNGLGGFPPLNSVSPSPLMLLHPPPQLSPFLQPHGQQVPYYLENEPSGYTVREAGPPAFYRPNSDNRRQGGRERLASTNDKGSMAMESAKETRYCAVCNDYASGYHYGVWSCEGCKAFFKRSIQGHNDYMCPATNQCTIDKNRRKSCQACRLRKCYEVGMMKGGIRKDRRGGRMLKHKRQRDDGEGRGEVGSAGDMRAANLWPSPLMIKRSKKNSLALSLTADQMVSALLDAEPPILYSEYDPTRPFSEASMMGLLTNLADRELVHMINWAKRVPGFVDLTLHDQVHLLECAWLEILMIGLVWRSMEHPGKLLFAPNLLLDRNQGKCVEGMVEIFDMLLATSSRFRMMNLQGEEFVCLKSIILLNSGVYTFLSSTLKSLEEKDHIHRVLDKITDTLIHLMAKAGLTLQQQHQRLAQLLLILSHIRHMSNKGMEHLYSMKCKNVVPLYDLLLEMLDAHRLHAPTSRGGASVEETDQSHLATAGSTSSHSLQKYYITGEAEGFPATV
Sequence of ER in T47D cells (P03372 whole entry): as above

Turning to `O=C1CC[C@H](NC(=O)c2ccc3c(n2)OC[C@H]2CN(CC4CCN(c5ccc([C@@H]6c7ccc(O)cc7CC[C@@H]6c6ccccc6)cc5)CC4)CCN32)C(=O)N1` (single isomer, unassigned) [Compound A6], the IC50 (in general, the concentration needed to halve the response being measured) on CRBN/DDB1 is 500 to 5000 nM; at ERα_LBD (GST), < 10 nM. The Dmax at ER in MCF-7 cells (setting [1]) and at ER in T47D cells (setting [2]) was 50 to 75% throughout. Moreover, the DC50 on ER in MCF-7 cells (16 hrs treatment) and on ER in T47D cells (16 hrs treatment) was < 1 nM throughout.
Consider `COc1cc(N2CCC3(CC2)CC(CN2CCN4c5ccc6c(c5OC[C@H]4C2)CN([C@H]2CCC(=O)NC2=O)C6=O)C3)ccc1[C@H]1c2ccc(O)cc2CC[C@H]1c1ccccc1` (single isomer, unassigned) [Compound A9], for which the half-inhibitory concentration (IC50) was < 50 nM at CRBN/DDB1 and 10 to 100 nM at ERα_LBD (GST). Besides, the Dmax on ER in MCF-7 cells (setting [1]) and on ER in T47D cells (setting [2]) was 50 to 75% each time. Besides, the DC50 on ER in MCF-7 cells (16 hrs treatment) and at ER in T47D cells (16 hrs treatment) was 1 to 10 nM in each case.
For the compound `COc1cc(N2CCC3(CC2)CC(CN2CCN4c5cc6c(cc5OC[C@@H]4C2)C(=O)N([C@H]2CCC(=O)NC2=O)C6)C3)ccc1[C@H]1c2ccc(O)cc2CC[C@H]1c1ccccc1` (single isomer, unassigned) [Compound A11], the IC50 at CRBN/DDB1 is 50 to 500 nM; at ERα_LBD (GST) it was 10 to 100 nM. The Dmax on ER in MCF-7 cells (setting [1]) and on ER in T47D cells (setting [2]) was 50 to 75% in each case. Further, the figures for the DC50 at ER in MCF-7 cells (16 hrs treatment) and at ER in T47D cells (16 hrs treatment) were 10 to 100 nM and 1 to 10 nM, respectively.
Turning to `O=C1CC[C@H](N2Cc3cc4c(cc3C2=O)OC[C@H]2CN(C[C@@H]3COC5(CCN(c6ccc([C@@H]7c8ccc(O)cc8CC[C@@H]7c7ccccc7)cc6)CC5)C3)CCN42)C(=O)N1` (single isomer, unassigned) [Compound A18], the IC50 is 500 to 5000 nM at CRBN/DDB1 and > 100 nM at ERα_LBD (GST). In addition, the Dmax at ER in MCF-7 cells (setting [1]) and on ER in T47D cells (setting [2]) was 50 to 75% each time. The DC50 at ER in MCF-7 cells (16 hrs treatment) and on ER in T47D cells (16 hrs treatment) was < 1 nM in each case.
With `O=C1CC[C@H](N2Cc3c(ccc4c3OC[C@H]3CN(C[C@@H]5COC6(C5)CN(c5ccc([C@@H]7c8ccc(O)cc8CC[C@@H]7c7ccccc7)cc5)C6)CCN43)C2=O)C(=O)N1` (single isomer, unassigned) [Compound A69], the IC50 is 50 to 500 nM at CRBN/DDB1 and < 10 nM at ERα_LBD (GST). The Dmax (in general, the greatest extent of degradation seen) on ER in MCF-7 cells (setting [1]) was 50 to 75%; at ER in T47D cells (setting [2]) it was > 75%. In addition, the DC50 at ER in MCF-7 cells (16 hrs treatment) and on ER in T47D cells (16 hrs treatment) was < 1 nM each time.
Consider `O=C1CCC(NC(=O)c2ccc3c(n2)OC[C@H]2CN(CC4CCN(c5ccc([C@@H]6c7ccc(O)cc7CC[C@@H]6c6ccccc6)cc5)CC4)CCN32)C(=O)N1` (stereo partly drawn) [Compound A2, (4aR)-N-(2,6-dioxopiperidin-3-yl)-3-((1-(4-((1R,2S)-6-hydroxy-2-phenyl-1,2,3,4-tetrahydronaphthalen-1-yl)-phenyl)piperidin-4-yl)meth-yl)-1,2,3,4,4a,5-hexahydro-pyrazino[1,2-d]pyrido[2,3-b] [1,4]oxazine-8-carboxamide], for which the results for the IC50 on CRBN/DDB1 and at ERα_LBD (GST) were 500 to 5000 nM and < 10 nM, respectively. The Dmax on ER in MCF-7 cells (setting [1]) and at ER in T47D cells (setting [2]) was > 75% throughout. Also, the DC50 at ER in MCF-7 cells (16 hrs treatment) and at ER in T47D cells (16 hrs treatment) was < 1 nM each time.
In the case of `COc1cc(N2CCC3(CC2)CC(CN2CCC4(CC2)COc2c4ccc4c2CN([C@H]2CCC(=O)NC2=O)C4=O)CO3)ccc1[C@H]1c2ccc(O)cc2CC[C@H]1c1ccccc1` (stereo partly drawn) [Compound A54, (3S)-3-(1′-((8-(4-((1R,2R)-6-hydroxy-2-phenyl-1,2,3,4-tetrahydronaphthalen-1-yl)-3-methoxyphenyl)-1-oxa-8-azaspiro[4.5]decan-3-yl)methyl)-6-oxo-6,8-dihydro-2H,7H-spiro[furo[2,3-e]isoindole-3,4′-piperidin]-7-yl)piperidine-2,6-dione], the results for the IC50 at CRBN/DDB1 and on ERα_LBD (GST) were < 50 nM and < 10 nM, respectively. Also, the Dmax is 50 to 75% on ER in MCF-7 cells (setting [3]) and > 75% at ER in T47D cells (setting [4]). Moreover, the DC50 at ER in MCF-7 cells (16 hrs treatment) and at ER in T47D cells (16 hrs treatment) was < 1 nM throughout.
Regarding `COC1(CN2CCN3c4ccc5c(c4OC[C@H]3C2)CN([C@H]2CCC(=O)NC2=O)C5=O)CCN(c2ccc([C@@H]3c4ccc(O)cc4CC[C@@H]3c3ccccc3)cc2)CC1` [Compound A82, (S)-3-((R)-7-((1-(4-((1R,2S)-6-hydroxy-2-phenyl-1,2,3,4-tetrahydronaphthalen-1-yl)-phenyl)-4-methoxypiperidin-4-yl)methyl)-1-oxo-1,3,5,5a,6,7,8,9-octahydro-2H-pyrazino [1′,2′:4,5][1,4]oxazino[2,3-c]isoindol-2-yl)piperidine-2,6-dione], the IC50 at CRBN/DDB1 was 50 to 500 nM; on ERα_LBD (GST), < 10 nM. In addition, the maximal degradation (Dmax) on ER in MCF-7 cells (setting [1]) is > 75%. Besides, the DC50 – broadly, the concentration at which degradation of the target reaches its halfway point – on ER in MCF-7 cells (16 hrs treatment) is < 1 nM.
In the case of `COc1cc(N2CCC(CN3CCN4c5ccc(C(=O)N[C@H]6CCC(=O)NC6=O)nc5OC[C@H]4C3)CC2)c(F)cc1[C@@H]1c2ccc(O)cc2CC[C@@H]1c1ccccc1` [Compound A94, (R)-N-((S)-2,6-dioxopiperidin-3-yl)-3-((1-(2-fluoro-4-((1S,2S)-6-hydroxy-2-phenyl-1,2,3,4-tetrahydronaphthalen-1-yl)-5-methoxyphenyl)piperidin-4-yl)methyl)-1,2,3,4,4a,5-hexahydropyrazino[1,2-d]pyrido[2,3-b][1,4]oxazine-8-carboxamide], the IC50 at CRBN/DDB1 was > 5000 nM; at ERα_LBD (GST) it was < 10 nM. For the same compound, the Dmax at ER in MCF-7 cells (setting [1]) and on ER in T47D cells (setting [2]) was > 75% each time. Further, the DC50 on ER in MCF-7 cells (16 hrs treatment) and on ER in T47D cells (16 hrs treatment) was < 1 nM in each case.
Turning to `COc1cc(N2CCC3(CC2)CC(CN2CCC4(CC2)COc2c4ccc4c2CN([C@H]2CCC(=O)NC2=O)C4=O)C3)ccc1[C@@H]1c2ccc(O)cc2CC[C@@H]1c1ccccc1` [Compound A95, (S)-3-(1′-((7-(4-((1S,2S)-6-hydroxy-2-phenyl-1,2,3,4-tetra-hydronaphthalen-1-yl)-3-meth-oxyphenyl)-7-azaspiro[3.5]nonan-2-yl)methyl)-6-oxo-6,8-dihydro-2H,7H-spiro[furo[2,3-e]isoindole-3,4′-piperidin]-7-yl)piperidine-2,6-dione], the IC50 on CRBN/DDB1 is < 50 nM; at ERα_LBD (GST), < 10 nM. Further, the Dmax at ER in MCF-7 cells (setting [3]) and on ER in T47D cells (setting [4]) was > 75% throughout. Moreover, the DC50 on ER in MCF-7 cells (16 hrs treatment) and on ER in T47D cells (16 hrs treatment) was < 1 nM throughout.
Turning to `O=C1CC[C@H](N2Cc3c(ccc4c3OCC43CCN(CC4CCC5(CC4)CN(c4ccc([C@@H]6c7ccc(O)cc7CC[C@@H]6c6ccccc6)cn4)C5)CC3)C2=O)C(=O)N1` [Compound A131, (S)-3-(1′-((2-(5-((1S,2S)-6-hydroxy-2-phenyl-1,2,3,4-tetrahydronaphthalen-1-yl)pyridin-2-yl)-2-azaspiro[3.5]nonan-7-yl)methyl)-6-oxo-6,8-dihydro-2H,7H-spiro[furo[2,3-e]isoindole-3,4′-piperidin]-7-yl)piperidine-2,6-dione], the IC50 is < 50 nM at CRBN/DDB1 and < 10 nM at ERα_LBD (GST). In addition, the Dmax on ER in MCF-7 cells (setting [3]) is > 75%. For the same compound, the DC50 at ER in MCF-7 cells (16 hrs treatment) was < 1 nM.
In the case of `O=C1CC[C@H](N2Cc3c(ccc4c3OCC43CCN(CC4CCC5(CC4)CN(c4ccc([C@@H]6c7ccc(O)cc7CC[C@@H]6c6ccccc6)cc4F)C5)CC3)C2=O)C(=O)N1` [Compound A161, (S)-3-(1′-((2-(2-fluoro-4-((1R, 2S)-6-hydroxy-2-phenyl-1,2,3,4-tetrahydronaphthalen-1-yl)phenyl)-2-azaspiro[3.5]nonan-7-yl)methyl)-6-oxo-6,8-dihydro-2H,7H-spiro[furo[2,3-e]isoindole-3,4′-piperidin]-7-yl)piperidine-2,6-dione], the values for the IC50 on CRBN/DDB1 and at ERα_LBD (GST) were < 50 nM and < 10 nM, respectively. Also, on ER in MCF-7 cells (setting [3]), the Dmax fell in the range of 50 to 75%. Besides, the DC50 on ER in MCF-7 cells (16 hrs treatment) is < 1 nM.
